{"source": "patent US7317038B2", "about": "“Nerve regeneration promoters containing semaphorin inhibitor as the active ingredient” (Dainippon Sumitomo Pharma Co., Ltd., priority 2000, dated 2008)", "key": {"[1]": {"test_system": "sciatic nerves that were crushed", "experiment": "In vivo nerve regeneration after sciatic nerve crush", "details": "rat; 1 ug/day locally for 14 days; distal areas of 2 mm and 6 mm from the crush site", "procedure": "Male Wister rats were purchased at 7-week-old (CHARLES RIVER JAPAN, INC.) and bred under the light and dark cycles for 12 hours. The rats had free access to solid feedstuff (CLEA Japan, Inc., CE2) and water, and were used in the experiment after about one week of preliminary breeding. Under pentbarbital anesthesia, sciatic nerve of the rat thighs was exposed, clipped for 30 sec with forceps of 5 mm width, and was thus crushed. The crush site was marked with 10-0 nylon thread. SPF-3059-1 was dissolved in PBS at 8.3 ug/ml and was locally administered to the lesion site for 14 consecutive days at a flow rate of 1 ug/day by using an osmotic pressure pump (2ML2, 5 ul/hr, alzet). PBS was administered to the controls. At Day 14 of administration, the sciatic nerves were excised and trimmed at the distal areas from the crush site (the positions of marking) by 2 mm, 6 mm and 10 mm. The incised sciatic nerves were fixed in 2.5% glutaraldehyde/0.1 M phosphate buffer for a day and a night. When they were fixed, nerves were dehydrated by alcohol and were embedded in epoxy resin. […] After the areas of sciatic nerves were measured, the myelinated fiber density was calculated by […]."}, "Sema3A": {"molecular_target": "T1, Sema3A (Mus musculus, UniProt O08665)", "T1 construct": "expressed in transfected cells; host or cells: COS7", "T1 sequence (O08665 21-772)": "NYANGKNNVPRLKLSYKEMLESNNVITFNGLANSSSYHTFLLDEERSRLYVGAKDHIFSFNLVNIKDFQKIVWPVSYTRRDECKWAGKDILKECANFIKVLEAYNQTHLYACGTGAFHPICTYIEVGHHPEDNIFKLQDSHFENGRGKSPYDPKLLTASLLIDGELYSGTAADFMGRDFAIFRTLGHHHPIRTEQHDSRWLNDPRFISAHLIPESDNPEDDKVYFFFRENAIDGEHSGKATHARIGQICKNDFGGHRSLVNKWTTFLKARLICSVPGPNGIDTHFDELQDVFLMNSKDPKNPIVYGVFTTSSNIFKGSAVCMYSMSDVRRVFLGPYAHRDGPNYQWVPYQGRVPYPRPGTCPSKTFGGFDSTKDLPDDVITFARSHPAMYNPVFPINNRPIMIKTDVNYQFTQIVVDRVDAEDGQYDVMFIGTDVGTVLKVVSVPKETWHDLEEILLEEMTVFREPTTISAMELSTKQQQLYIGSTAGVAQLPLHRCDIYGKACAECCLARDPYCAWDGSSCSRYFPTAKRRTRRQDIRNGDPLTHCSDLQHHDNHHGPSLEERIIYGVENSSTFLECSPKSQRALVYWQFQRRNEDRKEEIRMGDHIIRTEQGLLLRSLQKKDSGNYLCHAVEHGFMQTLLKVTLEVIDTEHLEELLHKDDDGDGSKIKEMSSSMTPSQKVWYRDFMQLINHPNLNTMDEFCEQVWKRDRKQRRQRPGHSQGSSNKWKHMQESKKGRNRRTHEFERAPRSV", "experiment": "Inhibition of collapse activity by contact of Sema3A and the inhibitor (Pre-Mix)", "format": "cell-based", "details": "final concentration 0.05 μg/ml", "description": "For example, the inhibitory activity of SPF-3059-1 for the binding of Sema3A to Neuropilin-1 was actually examined by using the alkaline phosphatase-fused Sema3A (=Sema3A-AP) and Neuropilin-1-expressing COS7 cells. SPF-3059-1 is a compound discovered by the present inventors, which inhibits both collapse and neurite outgrowth inhibition induced by semaphorin 3A (Sema3A). […] Further, in order to elucidate the mechanism of the said inhibition, that is, in order to elucidate whether SPF-3059-1 interacts with Sema3A or with its receptor, the comparison was made by measuring collapse activity between (1) the collapse activity which was observed when a sample, to which SPF-3059-1 and Sema3A were mixed in advance at the concentration raising sufficient inhibitory activity (0.25 μg/ml of SPF-3059-1), was added to the culture solution of dorsal root ganglions and (2) the collapse activity which was observed when Sema3A was added to the above-mentioned culture solution after the addition of SPF-3059-1. The final concentration of SPF-3059-1 (0.05 μg/ml) in the culture solution was the same both for (1) and (2). […] From the above considerations, SPF-3059-1 is thought to act by a mechanism in which the binding of Sema3A to the receptor is inhibited by the direct action of SPF-3059-1 on Sema3A. […]"}}, "note": "“Also recorded” adds a separate entry of the source.", "data": [{"compound": "CC(=O)c1c(C)c(C(=O)C2COc3cc(O)c(O)c(C(=O)O)c3C2=O)cc2c(=O)c3c(C(=O)O)c(O)c(O)cc3oc12", "note": "(stereo not drawn) [SPF-3059-1]", "values": [{"measurement": "myelinated fiber density vs PBS-injected group", "setting": "[1]", "value": "increased more"}, {"measurement": "inhibition of Sema3A collapse activity, Pre-Mix sample", "setting": "Sema3A; Sema3A pre-mixed with 0.25 μg/ml compound", "value": "Sema3A activity was inhibited; also recorded: inhibition of collapse activity was observed"}, {"measurement": "inhibition of Sema3A collapse activity, compound and Sema3A independently added", "setting": "Sema3A", "value": "inhibitory activity will not be observed; also recorded: Inhibition of collapse activity was not observed"}]}]}
